Experimental findings from EP0499337A1, “Use of tetra:hydro-thieno-pyrido-indole derivatives for the treatment of skin disorders” (YAMANOUCHI EUROPE B.V., priority 1991, dated 1992) are described below.

The test system of one series is PMHL. Nature of the series: Nonspecific cytotoxicity, trypane blue exclusion test. In kind it is cell-based, human. How it is done: Nonspecific cytotoxicity of the test compounds on PMHL was assessed by […] blue exclusion test.
Series [1] relates to HaCaT cells. Nature of the series: Cytotoxicity, LDH release into the culture medium. The settings on record: 48 h after onset of drug exposure.
Description: HaCaT cells were grown as described.
Cytotoxicity was assessed by measurements of the content of intracellular lactate dehydrogenase (LDH) activity released into the culture medium during 48 h after onset of drug exposure. Possible drug induced detachment of the HaCaT cells from the plate was assessed by collection of the medium from the wells and centrifugation (80 x g, 10 min.) The resulting pellet was suspended in 10 µl medium and cells were counted in a haemocytometer.
The test system of series [2] is human polymorphonuclear leukocytes (PMNL). Nature of the series: ROS generation from PMNL, lucigenin-amplified chemiluminescence. It counts as cell-based. The settings on record: Homo sapiens, PMNL, IC₅₀-values. The procedure:
Human PMNL were isolated from fresh blood (anticoagulated with sodium citrate) by erythrocyte sedimentation with 1% dextran (Pharmacia, Uppsala, Sweden) centrifugation of the resulting supernatant, followed by hypoosmotic lysis to remove red blood cells. Washed cells were adjusted to 2 x 10⁶ cells/ml in PBS containing fetal calf serum (2%; v/v). Test compounds dissolved in DMSO were diluted with the assay buffer to a final DMSO concentration of 0.5% (v/v).
Then the test compounds (100 µl) were added with subsequent recording for another 16 min period. […] Results were expressed as percent of inhibition or stimulation of the controls (mean of two integrals) in a single experiment.

The test system of series [3] is TPA-induced ear edema in mice. Nature of the series: Intraperitoneal administration, TPA-induced ear edema in mice. In kind it is in vivo. The conditions noted are these: intraperitoneally, 30, 10 or 3.3 mg/kg. The procedure: Mice were injected intraperitoneally with 30, 10 or 3.3 mg/kg body weight of the test substances, sphingosine in carboxymethylcellulose (0.5%) and tiflucarbine in physiologic Saline, 10 ml/kg body weight. After 60 minutes the mire were challenged on the left ear with a 0.01 wt% solution of 12-O-tetradecanoylphorbol-13-acetate (TPA) in a 80/20 mixture of acetone/water. At 0, 3, 6 and 24 h after challenge, ear thickness was determined.

Series [4] has as its system Normal human keratinocytes. Nature of the series: Cornified envelope formation (keratinocyte differentiation). It counts as cell-based. The conditions noted are these: 4 h plus 48 h exposure, increasing concentrations. How it is done:
Normal human keratinocytes were grown to confluence at low calcium concentration in the presence of 5% FCS, 1 µM isoproterenol and 10 ng EGF per ml. They were first exposed for 4 h to increasing concentrations of test compounds and subsequently reincubated for 48 h in medium containing normal calcium concentration and the same additives, test compounds and [³H]-leucine (1 µCi/ml). Thereafter, both spontaneous and ionophore-induced cornified envelope (CE) formation was determined [King et al. (1986) Exp. Cell. Res., 167: 252].

In series [5] the test system is HaCaT cells. Nature of the series: Keratinocyte morphology, phase contrast microscopy. It counts as cell-based, human. The settings on record: 30 nM, monitored during 72 hours. How it is done: HaCaT cells were cultured under standard conditions. 24 h after plating (2.5 x 10⁶ cells) the medium was replaced by medium containing the test compounds. During 72 hours cell morphology was frequently monitored using a phase contrast photomicroscope (Olympus IMT-2, Tokyo, Japan).

In series [6] the test system is PKC from the central nervous system. Nature of the series: Phosphorylation of synaptosomal plasma membranes: B-50 phosphorylation. In kind it is biochemical. The settings on record: for phosphorylation of B-50 (% of control): without addition of CaM. How it is done:
Subcellular fractionation and phosphorylation assay were performed according to Kristjansson et al., (1982). […] After a preincubation at 30°C for 5 min, the phosphorylation reaction was started by adding the ATP. The reaction was stopped after 15 sec. All compounds to be tested were present at the start of the preincubation. […]

Another series relates to rat brain synaptosomes. Nature of the series: Noradrenaline release from permeated synaptosomes. It counts as cell-based. The settings on record: 100 µM. How it is done: Highly purified synaptosomes were prepared according to Dunkley and Robinson (1987). The synaptosomes were diluted with 3 ml buffer A (123 mM NaCl, 5 mM KCl, 2 mM CaCl₂, […], 1.15 mM NaH₂PO₄, 5.6 mM glucose, 20 mM PIPES pH 6.8, gassed with O₂:CO₂, 95:5) and incubated for 15 min at 37°C. Then 2.5 µCi noradrenalin (NA) was added, incubation was continued for 15 min and the synaptosomes were centrifuged for 20 min at 600 x g. The resulting pellet was washed twice in buffer A without CaCl₂ and resuspended (1 mg protein/ml).
For measurement of NA release, prelabeled synaptosomes were incubated at 37°C in buffer A containing Na₂ATP and EGTA-buffered Ca²⁺ in concentrations as indicated (final volume 120 µl). The release reaction was started by adding synaptosomes (20 µg protein) to the reaction mixture and terminated after 5 min by 30 sec centrifugation at 10,000 x g. The supernatant (90 µl) was collected and counted in a Packard Model 2,000 CA liquid scintillation counter with Picofluor as a scintillation cocktail. NA release was expressed as % of total [³H]-NA incorporated. Total NA incorporation was determined by measuring [³H]-incorporation in 20 µg prelabeled washed synaptosomes.

The subject of a further series is 50 kDa protein. Nature of the series: Phosphorylation of synaptosomal plasma membranes: CaM-dependent phosphorylation of the 50 kDa protein. In kind it is biochemical. The settings on record: in the presence of added CaM. How it is done: Subcellular fractionation and phosphorylation assay were performed according to Kristjansson et al., (1982). […] After a preincubation at 30°C for 5 min, the phosphorylation reaction was started by adding the ATP. The reaction was stopped after 15 sec. All compounds to be tested were present at the start of the preincubation. […] Phosphorylation of B-50 and the 50 kDa protein, which was only phosphorylated after addition of CaM, was measured in the presence of exogenous CaM (3 units/assay) and quantified.

[7] abbreviates: 16 min, compound added at peak, 16 min after opsonized zymosan, read-out: Peak CL.
[8] abbreviates: 30 min preincubation, unstimulated, read-out: Spontaneous CL.
[9] abbreviates: stimulation with opsonized zymosan after preincubation, read-out: Induced CL.

Where two headings read alike, the source gives them in different places.

In turn, `CN(C)CCCN1c2ccccc2Sc2ccc(Cl)cc21` [Chlorpromazine] came in with a Trypane blue in the series on PMHL of 30 µM. Also, the LDH release with HaCaT cells [1] is listed as 30 µM. For the same molecule, the IC50 in series [2] (setting [7]) stood at 21.8 µM; in [2] (setting [8]), 4.9 µM; in [2] (setting [9]), 7.6 µM.
As for `CC(CN1c2ccccc2Sc2ccccc21)N(C)C` (stereo not drawn) [Promethazine], the Trypane blue in the series on PMHL is 100 µM. The molecule also gave an LDH release with HaCaT cells [1] of 100 µM. Moreover, the IC50 in series [2] (setting [7]) worked out at 62.3 µM; in series [2] (setting [8]), 23.6 µM; in series [2] (setting [9]), 31.4 µM.
As for `CCCCCCCCCCCCC/C=C/[C@@H](O)[C@@H](N)CO` [Sphingosine], the “ear edema (ear thickness), compared with tiflucarbine” value in [3] is “more potent”.
On to `CN[C@@H]1C[C@H]2O[C@@](C)([C@@H]1OC)n1c3ccccc3c3c4c(c5c6ccccc6n2c5c31)C(=O)NC4` [Staurosporine], for which, in the series on PMHL, the Trypane blue came out at 3 µM. In addition, the “spontaneous CE formation” value in series [4] is “marked effect”. The molecule further displayed an LDH release in the series on HaCaT cells [1] of 10 µM. The effect on morphology entry with HaCaT cells [5] was “effects on morphology”.
Consider `CSc1ccc2c(c1)N(CCC1CCCCN1C)c1ccccc1S2` (stereo not drawn) [Thioridazine], for which the IC50 in [2] (setting [7]) was 10.6 µM; in series [2] (setting [8]) it was 2.4 µM; in [2] (setting [9]) it was 6.4 µM.
On to `CN1CCN(CCCN2c3ccccc3Sc3ccc(C(F)(F)F)cc32)CC1` [Trifluoroperazine], for which, in the series on PMHL, the Trypane blue turned out to be 100 µM. Also, in the series with HaCaT cells [1], the LDH release came to 30 µM.
Regarding `NCCCCCCNS(=O)(=O)c1cccc2c(Cl)cccc12` [W-7, N-(6-aminohexyl)-5-chloro-1-naphthalene sulfonamide], the Trypane blue in the series with PMHL is given as 15 µM. Further, the LDH release with HaCaT cells [1] was found to be 100 µM. In addition, the figures for the IC50 in [2] (setting [7]), in [2] (setting [8]) and in [2] (setting [9]) were 10 µM, 6.3 µM and 6.3 µM, respectively.
Polymyxin B: the B-50 phosphorylation result in [6] (in the presence of exogenous CaM (3 units/assay)) is “dose-dependently inhibited”. Also, the “phosphorylation of B-50 (% of control)” value in series [6] (concentration 0.1 µM) is 95 ± 8 % of control; in [6] (concentration 1 µM), 103 ± 9 % of control; in series [6] (concentration 10 µM) it was 82 ± 11 % of control; in series [6] (concentration 100 µM), 18 ± 8 % of control. In addition, the noradrenaline release in the series on rat brain synaptosomes (high (10 µM) Ca²⁺) was 19.4 ± 2.38 % of total [³H]-noradrenaline; with rat brain synaptosomes (low (10 nM) Ca²⁺), 16.5 ± 1.03 % of total [³H]-noradrenaline. Besides, the “phosphorylation of the 50 kDa protein” value in the series with 50 kDa protein is listed as “dose-dependently inhibited”.
